The values that follow come from ChEMBL document CHEMBL1156734, “Discovery of 1,3-disubstituted-1H-pyrrole derivatives as potent melanin-concentrating hormone receptor 1 (MCH-R1) antagonists” (Bioorg Med Chem Lett, 2008).

One may read the IC50 as the concentration needed to halve the response being measured. The fraction unbound is the share of the substance not bound to proteins or other matrix. Higher therefore signals much free substance.

Data set [1] concerns the target T1, Melanin-concentrating hormone receptor 1 (Homo sapiens, UniProt Q99705). The experiment in a line: Displacement of [125I]MCH from human MCHR1 expressed in HEK293 cells. The data set is classed as cell-based.
In data set [2] the target is T1, Melanin-concentrating hormone receptor 1. The experiment in a line: Antagonist activity at human MCHR1 expressed in HEK293 cells assessed as [35S]GTPgammaS accumulation. The data set is classed as functional, cell-based. A general note: Binding of GTPγS marks nucleotide exchange on a G protein.
Data set [3] relates to Liver microsomes. Description: Metabolic stability in human liver microsomes. Format: ADME, Microsome. (Liver microsomes are a subcellular fraction often used to study metabolism.)
Data set [4] deals with Mus musculus. The experiment in a line: Intrinsic clearance in C57BL mouse at 20 uM/kg, iv. Format: ADME, organism-based. To be noted: in vivo.
Data set [5] can be described thus: Fraction unbound in human plasma. Format: ADME, cell-free.

Bounds are passed on as bounds.

T1 sequence (Q99705 whole entry): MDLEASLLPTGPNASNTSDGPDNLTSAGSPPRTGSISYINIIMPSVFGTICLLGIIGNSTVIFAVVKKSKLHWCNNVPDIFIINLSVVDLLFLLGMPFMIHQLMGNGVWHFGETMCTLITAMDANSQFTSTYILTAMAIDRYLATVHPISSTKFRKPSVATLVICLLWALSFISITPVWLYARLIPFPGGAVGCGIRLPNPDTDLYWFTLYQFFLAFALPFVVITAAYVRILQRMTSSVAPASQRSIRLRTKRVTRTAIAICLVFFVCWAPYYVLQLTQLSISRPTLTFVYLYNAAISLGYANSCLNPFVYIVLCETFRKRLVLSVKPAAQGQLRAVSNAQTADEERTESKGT

In turn, `FC(F)(F)c1ccc(-n2ccc(CN3CCC(NCCOc4cccc(Cl)c4)CC3)c2)cc1` displayed an IC50 in data set [1] of 636 nM.

Compound `O=C(COc1ccc(F)c(F)c1)N[C@H]1CC[C@H](Nc2ccn(-c3ccc(C(F)(F)F)cc3)c2)C1` yielded a half-maximal inhibitory concentration (IC50) in data set [1] of 2260 nM.

`O=C(COc1cccc(Cl)c1)NC1CCN(Cc2ccc3c(c2)OCCO3)CC1` registered an IC50 in data set [1] of 903 nM.

Regarding `Fc1ccc(-c2cc(C3CCN(Cc4ccn(-c5ccc(C(F)(F)F)cc5)c4)CC3)n[nH]2)cc1`, the IC50 in data set [2] is 58 nM; in data set [1], 37 nM.

Regarding `O=C(COc1cccc(Cl)c1)NC1CCN(Cc2ccn(-c3ccc(C(F)(F)F)cn3)c2)CC1`, the IC50 is 92 nM in data set [2] and 48 nM in data set [1].

The compound `O=C(COc1cccc(Cl)c1)NC1CCN(Cc2ccc(-c3ccccn3)cc2)CC1` came in with a half-inhibitory concentration (IC50) in data set [1] of 120 nM.

`N#Cc1ccc(-n2ccc(CN3CCC(NC(=O)COc4cccc(Cl)c4)CC3)c2)cc1`: the IC50 in data set [2] was 145 nM; in data set [1] it was 52 nM.

As to `COc1ccc(-n2ccc(CN3CCC(NC(=O)COc4cccc(Cl)c4)CC3)c2)cc1`, the IC50 is 90 nM in data set [2] and 100 nM in data set [1].

On to `O=C(COc1cccc(Cl)c1)NC1CCN(Cc2ccc3[nH]ccc3c2)CC1`, for which the IC50 in data set [1] stood at 2340 nM.

`O=C(COc1cccc(Cl)c1)NC1CCN(Cc2csc(-c3ccc(Cl)cc3)n2)CC1` displayed an IC50 in data set [1] of 347 nM.

In turn, `Cc1cc(CN2CCC(NC(=O)COc3cccc(Cl)c3)CC2)c(C)n1-c1ccccc1` gave an IC50 in data set [1] of 9650 nM.

As to `O=C(COc1cccc(Cl)c1)NC1CCN(Cc2ccc(-c3ccc(OC(F)(F)F)cc3)o2)CC1`, the IC50 came out at 103 nM in data set [2] and 78 nM in data set [1].

`O=C(COc1cccc(Cl)c1)NC1CCN(Cc2cccc(-n3cccc3)c2)CC1` displayed an IC50 in data set [1] of 297 nM.

For `CC(c1ccn(-c2ccc(C(F)(F)F)cc2)c1)N1CCC(NC(=O)COc2cccc(Cl)c2)CC1` (stereo not given), the results for the IC50 in data set [2] and in data set [1] were 117 nM and 43 nM, respectively.

For the compound `O=C(COc1cccc(Cl)c1)NC1CCN(Cc2ccn(C3CCCC3)c2)CC1`, the IC50 in data set [1] was over 33000 nM.

Regarding `O=C(COc1ccc(F)c(F)c1)NC1CCN(Cc2ccn(-c3ccc(C(F)(F)F)cc3)c2)C1` (stereo not given), the IC50 in data set [2] was determined as 48 nM; in data set [1] it was 29 nM.

Compound `O=C(COc1cccc(Cl)c1)NCC1CCN(Cc2ccn(-c3ccc(C(F)(F)F)cn3)c2)CC1` returned an IC50 in data set [1] of 313 nM.

In the case of `O=C(COc1cccc(Cl)c1)NC1CCN(Cc2ccc(-c3ccc(C(F)(F)F)cn3)o2)CC1`, the IC50 in data set [1] is 927 nM.

As to `Fc1ccc(-c2c[nH]c(C3CCN(Cc4ccn(-c5ccc(C(F)(F)F)cc5)c4)CC3)n2)cc1`, the results for the IC50 in data set [2] and in data set [1] were 122 nM and 20 nM, respectively.

`O=C(COc1cccc(Cl)c1)NC1CCN(Cc2ccn(-c3ccccc3)c2)CC1` displayed an IC50 in data set [1] of 710 nM.

`O=C(COc1cccc(Cl)c1)NC1CCN(Cc2ccn(-c3ccon3)c2)CC1`: in data set [1], the IC50 stood at 1500 nM.

For the compound `O=C(NC1CCN(Cc2ccc(Cl)c(Cl)c2)CC1)c1csc([N+](=O)[O-])c1`, the IC50 in data set [2] is 804 nM; in data set [1], 92 nM.

Take `O=C(COc1cccc(Cl)c1)NC1CCN(Cc2ccc3ccccc3c2)CC1`: the IC50 in data set [2] came to 104 nM; in data set [1], 41 nM.

On to `Fc1ccc(-c2ncc(C3CCN(Cc4ccn(-c5ccc(C(F)(F)F)cc5)c4)CC3)[nH]2)cc1`, for which the IC50 in data set [1] came to 113 nM.

In the case of `Fc1ccc(-c2cc(C3CCN(Cc4ccn(-c5ccc(C(F)(F)F)cc5)c4)CC3)no2)cc1`, the IC50 in data set [2] came out at 67 nM; in data set [1], 25 nM.

On to `O=C(COc1cccc(Cl)c1)NC1CCN(Cc2ccn(-c3ccc(OC(F)(F)F)cc3)c2)CC1`, for which the clearance in data set [3] worked out at 21 µL/min/mg. The values for the 50% inhibitory concentration (IC50) in data set [2] and in data set [1] were 15 nM and 31 nM, respectively. The compound further yielded a CL in data set [4] of 34 mL/min/kg. Further, the fraction unbound in data set [5] came out at 0.032.

For the compound `O=C(COc1cccc(Cl)c1)NC1CCN(Cc2cc3c(cc2Cl)OCO3)CC1`, the IC50 in data set [2] worked out at 505 nM; in data set [1], 82 nM.

In the case of `O=C(COc1ccc(F)c(F)c1)N[C@H]1CC[C@@H](Nc2ccn(-c3ccc(C(F)(F)F)cc3)c2)CC1`, the IC50 in data set [1] was found to be 104 nM.

With `CN(C(=O)COc1cccc(Cl)c1)C1CCN(Cc2ccn(-c3ccc(C(F)(F)F)cc3)c2)CC1`, the IC50 in data set [1] was 109 nM.

In the case of `Cc1c(-c2ccccc2)[nH]c(=O)n1C1CCN(Cc2ccn(-c3ccc(C(F)(F)F)cc3)c2)CC1`, the IC50 in data set [2] is 71 nM; in data set [1], 26 nM.

In data set [3], `O=C(COc1cccc(Cl)c1)NC1CCN(Cc2ccn(-c3ccc(C(F)(F)F)cc3)c2)CC1` had a clearance of 38 µL/min/mg. In addition, the CL in data set [4] turned out to be 41 mL/min/kg. This compound also came in with a fraction unbound in data set [5] of 0.012.

Regarding `Fc1ccc(-c2cc(C3CCN(Cc4ccn(-c5ccc(C(F)(F)F)cc5)c4)CC3)on2)cc1`, the IC50 in data set [1] was determined as 66 nM.

As for `O=C(COc1cccc(Cl)c1)NC1CCN(Cc2cn(-c3ccc(C(F)(F)F)cc3)cn2)CC1`, the IC50 in data set [1] came to 2140 nM.

As to `O=C(COc1ccc(F)c(F)c1)NCC1CN(Cc2ccn(-c3ccc(C(F)(F)F)cc3)c2)CCO1` (stereo not given), the IC50 in data set [1] turned out to be 269 nM.

On to `O=C(COc1cccc(Cl)c1)NC1CN(Cc2ccn(-c3ccc(C(F)(F)F)cc3)c2)C1`, for which the IC50 in data set [2] worked out at 73 nM; in data set [1] it was 42 nM.

In data set [1], `O=C(COc1cccc(Cl)c1)NCC1CCCN(Cc2ccn(-c3ccc(C(F)(F)F)cn3)c2)C1` (stereo not given) gave a concentration for half-maximal inhibition (IC50) of 303 nM.

Take `O=C(COc1cccc(Cl)c1)NC1CCCN(Cc2ccn(-c3ccc(C(F)(F)F)cn3)c2)C1` (stereo not given): the IC50 in data set [1] stood at 3050 nM.

Take `Cc1cccc(OCC(=O)NCC2CN(Cc3ccn(-c4ccc(C(C)(C)C)cn4)c3)C2)c1`: the IC50 in data set [1] amounted to 169 nM.

For `O=C(COc1cccc(Cl)c1)N[C@H]1[C@@H]2CN(Cc3ccn(-c4ccc(C(F)(F)F)cc4)c3)C[C@@H]21`, in data set [1], the IC50 stood at 111 nM.

For the compound `O=C(COc1cccc(Cl)c1)N1CCC(Nc2ccn(-c3ccc(C(F)(F)F)cn3)c2)CC1`, in data set [1], the IC50 came to 1250 nM.
